Measured values taken from US8992892B2, “Use of 1-(2,4-dihydroxy-phenyl)-3-(3-hydroxy-4-methoxy-phenyl)-propan-1-one” (SYMRISE AG, priority 2010, dated 2015).

What was measured:
Format in all cases: in vivo
[1] = Bitter reduction of a caffeine solution, rated by a group of experts
From the text: In order to quantify the decrease (i.e. the masking or reduction) in bitter impression in a specimen, the bitterness of a 500 ppm caffeinated solution was compared by a group of experts in each case with a specimen containing 500 ppm caffeine and also various concentrations of deoxy hesperetin dihydrochalcone (I) (rating: 1 [not bitter] to 10 [extremely bitter]).
For the assessment, i.e. calculation of the reduction (in %) of the bitter impression in each case the average values of the assessments of the group of experts for the caffeinated solution and the specimen to be compared containing caffeine and a substance to be assessed were used. 2,4-dihydroxybenzoic acid (2,4-DHB) was used here for comparison (reference) in accordance with U.S. Pat. No. 5,643,941.

[2] = Intensification of the sweet impression of a sugar solution, rated by a group of experts; set-up: key to Sweet impression (1-10) Specimen (Sucrose + (I)) / Sweet impression (1-10) Specimen (sucrose + substance): 1 = not sweet, 10 = extremely sweet
From the text: In order to quantify the intensification of the sweet impression, in each case the sweetness of a 5% sucrose solution was compared by a group of experts with a specimen containing 5% sucrose and 10 ppm, 25 ppm, 50 ppm or 75 ppm of the deoxy hesperetin dihydrochalcone (I) to be used according to the invention (rating: 1 [not sweet] to 10 [extremely sweet]).
For the assessment, i.e. calculation of the intensification (in %) of the sweet impression in each case the average values of the assessments of the group of experts for the sucrose solution and the specimen for comparison containing sucrose and deoxy hesperetin dihydrochalcone (I) were used.
In order to quantify the intensification of the sweetness impression, in each case the sweetness of a 5% sucrose solution was compared by a group of experts with a specimen containing 5% sucrose and 30 ppm or 50 ppm of a deoxy dihydrochalcone ((rating: 1 [not sweet] to 10 [extremely sweet])).
For the assessment, i.e. calculation of the intensification (in %) of the sweet impression in each case the average values of the assessments of the group of experts for the sucrose solution and the specimen containing sucrose and deoxy dihydrochalcone for comparison were used.

[3] = Sucrose equivalence in a 5% sucrose solution with (I), panelists; settings: for Sucrose equivalence in a 5% sucrose solution with (I), Calculation (5 + x) %: purely additive expected value; for synergy or synergistic additional effect: determined vs theoretically expected value
From the text: (§1) The panelists were asked to test each solution of the compound (I) in water against the sucrose series and to rate it according is degree of sweetness (sucrose equivalence). From the results produced by the panelists it was possible to determine the inherent sweetness of the deoxy hesperetin dihydrochalcone (I) for the above-mentioned concentrations. Apart from the sucrose equivalence of the solutions of the compound (I) in water (i.e. without sucrose) the sucrose equivalence in a 5% sucrose solution was also determined with a corresponding quantity of compound (I).
In all the cases tested a synergistic intensification in sweetness was found when an in itself not sweet concentration of deoxy hesperetin dihydrochalcone (I) was added. So it could in theory be expected that a 5% sucrose solution (i.e. a sucrose solution which sensorially by definition corresponds to 5% sucrose equivalents), containing 10 ppm, 25 ppm, 50 ppm or 75 ppm deoxy hesperetin dihydrochalcone (I), through a purely additive effect of the inherent sweetness of deoxy hesperetin dihydrochalcone (I) (see the sucrose equivalence determined in water) results in a sweetness of approximately 5.13%, 5.33%, 5.58% and again 5.58% sucrose equivalents. […] This corresponds in view of the purely theoretically expected values to a synergy or a synergistic additional effect of approximately 25%, 29%, 47% or 27%. It is noticeable that at the maximum tested concentration of 75 ppm—as might be expected—neither the maximum absolute nor the maximum synergistic intensification was measured.

[4] = Inherent sweetness in water against a sucrose concentration series (sucrose equivalence), panelists
From the text: as §1

[5] = Bitter reduction of a salicin solution, rated by a group of experts; settings: 250 ppm salicin + 50 ppm (I)
From the text: (§2) In order to quantify the decrease (i.e. the masking or reduction) in the bitter impression in a specimen, the bitterness of a solution containing either 100 ppm naringin or 250 ppm salicin or 500 ppm epigallocatechin gallate and 75 ppm ascorbic acid was compared by a group of experts in each case with a specimen containing either 100 ppm naringin or 250 ppm salicin or 500 ppm epigallocatechin gallate and 75 ppm ascorbic acid and additionally 50 ppm deoxy hesperetin dihydrochalcone (I) (rating: 1 [not bitter] to 10 [extremely bitter]).
(§3) For the assessment, i.e. calculation of the reduction (in %) of the bitter impression in each case the average values of the assessments of the group of experts for the respective bitter substance solution and the bitter substance solution also containing 50 ppm deoxy hesperetin dihydrochalcone (I) were used.

[6] = Bitter reduction of an epigallocatechin gallate solution, rated by a group of experts; settings: 500 ppm epigallocatechin gallate + 75 ppm ascorbic acid + 50 ppm (I)
From the text: as §2, §3

[7] = Sucrose equivalence in a 5% sucrose solution with (I), panelists; settings: 0.0100 % by weight (I); purely additive expected value
[8] = Bitter reduction of a naringin solution, rated by a group of experts; settings: 100 ppm naringin + 50 ppm (I)
From the text: as §2, §3

[9] = 100 ppm substance + 500 ppm caffeine vs caffeinated solution
[10] = 100 ppm substance + 500 ppm caffeine, rating 1 [not bitter] to 10 [extremely bitter]
[11] = Application example 4: 50 ppm deoxy dihydrochalcone + 5% sucrose vs sucrose solution
[12] = Application example 4: 50 ppm deoxy dihydrochalcone + 5% sucrose, rating 1-10

In the case of O=C(O)c1ccc(O)cc1O [2,4-DHB, 2,4-dihydroxybenzoic acid, reference compound], the “Reduction in bitter impression” value [1, 9] is reported as 3% and the “Bitter impression (1-10) Specimen (Caffeine + substance)” value (from here on “Bitter impression (1-10) Specimen”) [1, 10] is reported as 5.0 ± 1.0.

For COc1cc(CCC(=O)c2ccc(O)cc2O)ccc1O [2′,4,4′-trihydroxy-3-methoxy dihydrochalcone, reference compound], the “Intensification of the sweet effect” value [2, 11] was 8% and the “Sweet impression (1-10) Specimen (sucrose + substance)” value [2, 12] was 5.6 ± 1.4.

In the case of O=C(CCc1ccc(O)cc1)c1ccc(O)cc1O [davidigenin (1), davidigenin, reference compound], the “Intensification of the sweet effect” value ([2]; Application example 4: 30 ppm deoxy dihydrochalcone + 5% sucrose vs sucrose solution) is reported as 2% and the “Sweet impression (1-10) Specimen (sucrose + substance)” value ([2]; Application example 4: 30 ppm deoxy dihydrochalcone + 5% sucrose, rating 1-10) is reported as 5.7 ± 1.4.

For COc1ccc(CCC(=O)c2ccc(O)cc2O)cc1O [deoxy hesperetin dihydrochalcone (I), 1-(2,4-dihydroxy-phenyl)-3-(3-hydroxy-4-methoxy-phenyl)-propan-1-one], the “Intensification of the sweet impression” value ([2]; 10 ppm (I) + 5% sucrose vs sucrose solution) was 21%, the “Sweet impression (1-10) Specimen (Sucrose + (I))” value ([2]; 10 ppm (I) + 5% sucrose, rating 1 [not sweet] to 10 [extremely sweet]) was 6.4 ± 1.6 and the “Intensification of the sweet impression” value ([2]; 25 ppm (I) + 5% sucrose vs sucrose solution) was 42%. The “Sweet impression (1-10) Specimen (Sucrose + (I))” value ([2]; 25 ppm (I) + 5% sucrose, rating 1-10) was 6.9 ± 1.9, the “Intensification of the sweet impression” value ([2]; 50 ppm (I) + 5% sucrose vs sucrose solution) was 48% and the “Sweet impression (1-10) Specimen (Sucrose + (I))” value ([2]; 50 ppm (I) + 5% sucrose, rating 1-10) was 8.2 ± 0.9. For the same molecule, the “Intensification of the sweet impression” value ([2]; 75 ppm (I) + 5% sucrose vs sucrose solution) was 21%, the “Sweet impression (1-10) Specimen (Sucrose + (I))” value ([2]; 75 ppm (I) + 5% sucrose, rating 1-10) was 7.1 ± 1.7 and the “Intensification of the sweet effect” value [2, 11] was 48%. For the same molecule, the “Sweet impression (1-10) Specimen (sucrose + substance)” value [2, 12] was 8.2 ± 0.9, the sweetness-intensifying effect ([2]; own investigations) was “strong, sweetness-intensifying effect” and the “sweetness intensifying effect compared with structurally related substances (1)-(3)” value ([2]; see Application example 4) was “clearly the most powerful compound”. For the same molecule, the “Sucrose equivalence in a 5% sucrose solution with (I), Determination” value ([3]; 0.0010 % by weight (10 ppm) (I) in 5% sucrose) was 6.4%, the “Sucrose equivalence in a 5% sucrose solution with (I), Determination” value ([3]; 0.0025 % by weight (25 ppm) (I) in 5% sucrose) was 6.9% and the “Sucrose equivalence in a 5% sucrose solution with (I), Calculation (5 + x) %” value (“Sucrose equivalence … Calculation (5 + x) %” below) ([3]; 0.0025 % by weight (25 ppm) (I)) was 5.33%. For the same molecule, the “Sucrose equivalence in a 5% sucrose solution with (I), Determination” value ([3]; 0.0050 % by weight (50 ppm) (I) in 5% sucrose) was 8.2%, the “Sucrose equivalence … Calculation (5 + x) %” value ([3]; 0.0050 % by weight (50 ppm) (I)) was 5.58% and the “Sucrose equivalence in a 5% sucrose solution with (I), Determination” value ([3]; 0.0075 % by weight (75 ppm) (I) in 5% sucrose) was 7.1%. The “Sucrose equivalence … Calculation (5 + x) %” value ([3]; 0.0075 % by weight (75 ppm) (I)) was 5.58%, the “synergy or synergistic additional effect” value ([3]; 10 ppm (I) in 5% sucrose) was “approximately 25%” and the “synergy or synergistic additional effect” value ([3]; 25 ppm (I) in 5% sucrose) was about 29%. The “synergy or synergistic additional effect” value ([3]; 50 ppm (I) in 5% sucrose) was about 47%, the “synergy or synergistic additional effect” value ([3]; 75 ppm (I) in 5% sucrose) was about 27% and the “Determination of the sucrose equivalence in water (without sucrose)” value (shortened to “Determination … (without sucrose)”) ([4]; 0.0010 % by weight (I) in water) was 0.13%. For the same molecule, the “Determination … (without sucrose)” value ([4]; 0.0025 % by weight (I) in water) was 0.33%, the “Determination … (without sucrose)” value ([4]; 0.0050 % by weight (I) in water) was 0.58% and the “Determination … (without sucrose)” value ([4]; 0.0075 % by weight (I) in water) was 0.58%. For the same molecule, the “Determination … (without sucrose)” value ([4]; 0.0100 % by weight (I) in water) was 0.79%, the “own sweetness of the compound” value ([4]; own investigations) was “not in itself particularly sweet” and the “Reduction in bitter impression” value ([1]; 10 ppm substance + 500 ppm caffeine vs caffeinated solution) was 2%. The “Bitter impression (1-10) Specimen” value ([1]; 10 ppm substance + 500 ppm caffeine, rating 1-10) was 4.8 ± 1.6, the “Reduction in bitter impression” value ([1]; 25 ppm substance + 500 ppm caffeine vs caffeinated solution) was 26% and the “Bitter impression (1-10) Specimen” value ([1]; 25 ppm substance + 500 ppm caffeine, rating 1-10) was 3.8 ± 1.5. For the same molecule, the “Reduction in bitter impression” value ([1]; 50 ppm substance + 500 ppm caffeine vs caffeinated solution) was 11%, the “Bitter impression (1-10) Specimen” value ([1]; 50 ppm substance + 500 ppm caffeine, rating 1-10) was 3.7 ± 1.6 and the “Reduction in bitter impression” value [1, 9] was 3%. For the same molecule, the “Bitter impression (1-10) Specimen” value [1, 10] was 4.9 ± 1.9, the “Reduction in bitter impression” value [5] was 15% and the “Bitter impression (1-10) Bitter substance + (I)” value (“Bitter impression … (I)” for short) ([5]; rating 1-10) was 6.5 ± 2.2. For the same molecule, the “Reduction in bitter impression” value [6] was 10%, the “Bitter impression … (I)” value ([6]; rating 1-10) was 6.1 ± 2.9 and the “Sucrose equivalence … Calculation (5 + x) %” value [7] was 5.79%. For the same molecule, the “Reduction in bitter impression” value [8] was 7% and the “Bitter impression … (I)” value ([8]; rating 1-10) was 6.4 ± 2.4.

For COc1ccc(CCC(=O)c2ccc(O)cc2O)cc1 [reference compound], the “Intensification of the sweet effect” value [2, 11] was 12% and the “Sweet impression (1-10) Specimen (sucrose + substance)” value [2, 12] was 6.1 ± 1.8.
